The results in this text go back to US20250026724A1, “(1,4,5-TRISUBSTITUTED 1H-PYRAZOL-3-YL)OXY-2-ALKYLTHIOALKYL ACIDS AND -ALKYL ACID DERIVATIVES, SALTS THEREOF AND USE THEREOF AS ACTIVE HERBICIDAL INGREDIENTS” (BAYER AKTIENGESELLSCHAFT, priority 2021, published 2025).

Holding throughout (assay): Post-emergence herbicidal action, greenhouse pot trial
What all share (assay type): in vivo

One test concerns Bassia scoparia (KCHSC). The settings on record: Bassia scoparia, 504 h, read-out: Post-emergence effect against KCHSC. The procedure: (§1) Seeds of monocotyledonous and dicotyledonous weeds and crop plants are placed in sandy loam in plastic or organic planting pots, covered with soil and cultivated in a greenhouse under controlled growth conditions. 2 to 3 weeks after sowing, the trial plants are treated at the one-leaf stage. The compounds of the invention, formulated in the form of wettable powders (WP) or as emulsion concentrates (EC), are then sprayed onto the green parts of the plants as aqueous suspension or emulsion with addition of 0.5% additive at a water application rate equivalent to 600 l/ha. After about 3 weeks of keeping the trial plants in the greenhouse under optimum growth conditions, the effect of the preparations is rated visually in comparison to untreated controls. For example, 100% activity=the plants have died, 0% activity=like control plants.
(§2) Tables B1 to B14 below show the effects of selected compounds of the general formula (I) according to Table 1 on various harmful plants and at an application rate corresponding to 320 g/ha or lower, which were obtained by the trial procedure specified above. The appendices “a”, “b” and “c” give differentiation by dosage used with otherwise the same harmful plants tested.
(§3) As shown by results from Tables B1 to B19, inventive compounds of the general formula (I) in the case of post-emergence treatment have good herbicidal efficacy against harmful plants, for example Abutilon theophrasti (ABUTH), Alopecurus myosuroides (ALOMY), Amaranthus retroflexus (AMARE), Avena fatua (AVEFA), Digitaria sanguinalis (DIGSA), Echinochloa crus-galli (ECHCG), Bassia scoparia (KCHSC), Lolium rigidum (LOLRI), Matricaria inodora (MATIN), Pharbitis purpurea (PHBPU), Polygonum convolvulus (POLCO), Setaria viridis (SETVI), Veronica persica (VERPE) and Viola tricolor (VIOTR) at an application rate of 320 g of active substance or less per hectare, and good crop plant compatibility in the case of organisms such as Oryza sativa (ORYSA), Zea mays (ZEAMX), Brassica napus (BRSNW), Glycine max (GLXMA) and Triticum aestivum (TRZAS) at an application rate of 320 g or less per hectare.

Test [1] has as its system Matricaria inodora (MATIN). The settings on record: visual rating after about 3 weeks; for pest or weed control at 80 g/ha / pest or weed control at 320 g/ha: Tripleurospermum inodorum, 504 h; for pest or weed control at 80 g/ha: read-out: Post-emergence effect at 80 g/ha against MATIN in %; for pest or weed control at 320 g/ha: read-out: Post-emergence effect at 320 g/ha against MATIN in %. The procedure: as §1, §2, §3

Test [2] deals with Echinochloa crus-galli (ECHCG). Conditions: visual rating after about 3 weeks; for pest or weed control at 320 g/ha: read-out: Post-emergence effect at 320 g/ha against ECHCG in %. The procedure: as §1, §2, §3
Test [3] concerns Pharbitis purpurea (PHBPU). The settings on record: visual rating after about 3 weeks; for pest or weed control at 320 g/ha / pest or weed control at 80 g/ha: Ipomoea purpurea, 504 h; for pest or weed control at 320 g/ha: read-out: Post-emergence effect at 320 g/ha against PHBPU in %; for pest or weed control at 80 g/ha: read-out: Post-emergence effect at 80 g/ha against PHBPU in %. On the procedure: as §1, §2, §3

The next test concerns Setaria viridis (SETVI). Conditions: 320 g/ha, visual rating after about 3 weeks; for pest or weed control at 320 g/ha: Setaria viridis, 504 h, read-out: Post-emergence effect at 320 g/ha against SETVI in %. On the procedure: as §1, §2, §3
Test [4] concerns Polygonum convolvulus (POLCO). Conditions: visual rating after about 3 weeks; for pest or weed control at 320 g/ha: read-out: Post-emergence effect at 320 g/ha against POLCO in %. On the procedure: as §1, §2, §3
Test [5] has as its system Abutilon theophrasti (ABUTH). Conditions: visual rating after about 3 weeks; for pest or weed control at 320 g/ha: read-out: Post-emergence effect at 320 g/ha against ABUTH in %. The procedure: as §1, §2, §3
Another test concerns Viola tricolor (VIOTR). The procedure:
as §1, §2, §3

The subject of test [6] is Amaranthus retroflexus (AMARE). The settings on record: visual rating after about 3 weeks; for pest or weed control at 320 g/ha / pest or weed control at 80 g/ha: Amaranthus retroflexus, 504 h; for pest or weed control at 320 g/ha: read-out: Post-emergence effect at 320 g/ha against AMARE in %; for pest or weed control at 80 g/ha: read-out: Post-emergence effect at 80 g/ha against AMARE in %. On the procedure:
as §1, §2, §3

For test [7], the system named is Digitaria sanguinalis (DIGSA). Conditions: visual rating after about 3 weeks; for pest or weed control at 320 g/ha: Digitaria sanguinalis, 504 h, read-out: Post-emergence effect at 320 g/ha against DIGSA in %. On the procedure: as §1, §2, §3
In another test the test system is Avena fatua (AVEFA). Conditions: Avena fatua, 504 h, 320 g/ha, visual rating after about 3 weeks, read-out: Post-emergence effect at 320 g/ha against AVEFA in %. On the procedure: as §1, §2, §3
[8] abbreviates: Echinochloa crus-galli, 504 h, 320 g/ha.
Setting [9] is: Viola tricolor, 504 h, 80 g/ha, read-out: Post-emergence effect against VIOTR.
Setting [10] is: Viola tricolor, 504 h, 320 g/ha, read-out: Post-emergence effect against VIOTR.
Where [11] appears, read: Fallopia convolvulus, 504 h, 320 g/ha.
[12] abbreviates: Abutilon theophrasti, 504 h, 320 g/ha.

On to `CCOC(=O)C(Oc1nn(-c2ncccc2F)c(-c2ccc(F)nc2)c1Br)SC` (single isomer, unassigned) [Example I-29], for which the pest or weed control at 80 g/ha in the test with Bassia scoparia (KCHSC) (80 g/ha) worked out at 80%. Besides, in the test with Bassia scoparia (KCHSC), the pest or weed control at 320 g/ha amounted to 90%. Moreover, the “Post-emergence effect at 320 g/ha against MATIN in %” value in [1] (320 g/ha) was found to be 80%. Also, in test [2] (320 g/ha), the “Post-emergence effect at 320 g/ha against ECHCG in %” value came to 90%. In addition, the “Post-emergence effect at 320 g/ha against PHBPU in %” value in [3] (320 g/ha) worked out at 90%. Besides, the “Post-emergence effect at 320 g/ha against SETVI in %” value with Setaria viridis (SETVI) is given as 90%. Besides, in test [4] (80 g/ha), the “Post-emergence effect at 80 g/ha against POLCO in %” value worked out at 90%. Moreover, the “Post-emergence effect at 320 g/ha against POLCO in %” value in [4] (320 g/ha) was found to be 90%. For the same compound, the “Post-emergence effect at 320 g/ha against ABUTH in %” value in test [5] (320 g/ha) is listed as 90%. The “Post-emergence effect against VIOTR” value was 80% in the test with Viola tricolor (VIOTR) (80 g/ha) and 90% in the test with Viola tricolor (VIOTR) (320 g/ha). Moreover, the “Post-emergence effect at 320 g/ha against AMARE in %” value in test [6] (320 g/ha) worked out at 80%. The “Post-emergence effect at 320 g/ha against DIGSA in %” value in [7] (320 g/ha) is listed as 90%.
Consider `CCOC(=O)C(Oc1nn(-c2cc(F)ccc2F)c(-c2cncc(F)c2)c1I)SC` (stereo not shown) [Example I-02], for which the pest or weed control at 80 g/ha (in test [1]; in the test on Viola tricolor (VIOTR) (setting [9])) was 80% in each case. Further, the pest or weed control at 320 g/ha in test [1] (320 g/ha) amounted to 90%; in test [2] (setting [8]), 90%; in the test with Setaria viridis (SETVI) it was 80%; with Viola tricolor (VIOTR) (setting [10]) it was 90%.
Turning to `COC(=O)C(Oc1nn(-c2cc(F)ccc2F)c(-c2cncc(F)c2)c1Br)SC` (stereo not shown) [Example I-07], the pest or weed control at 80 g/ha in test [1] amounted to 80%; with Viola tricolor (VIOTR) (setting [9]) it was 90%. For the same compound, the pest or weed control at 320 g/ha (in test [1] (320 g/ha); in test [2] (setting [8]); in the test on Setaria viridis (SETVI); with Viola tricolor (VIOTR) (setting [10]); in [7] (320 g/ha)) was 90% in each case. The pest or weed control at 20 g/ha in the test on Viola tricolor (VIOTR) (Viola tricolor, 504 h, 20 g/ha, read-out: Post-emergence effect against VIOTR) stood at 80%.
For `CCOC(=O)C(Oc1nn(-c2ncccc2F)c(-c2ccc(F)nc2)c1C(F)(F)F)SC` (stereo not shown) [Example I-09], the pest or weed control at 320 g/ha was 80% in test [1] (320 g/ha); 80% in [2] (setting [8]); 90% in test [3] (320 g/ha); 90% in [4] (setting [11]); 80% in test [5] (setting [12]); 90% with Viola tricolor (VIOTR) (setting [10]).
In the case of `CCOC(=O)C(Oc1nn(-c2ncccc2F)c(-c2ccc(F)cc2F)c1Br)SC` (stereo not shown) [Example I-14], the pest or weed control at 320 g/ha in [3] (320 g/ha) is 80%; with Setaria viridis (SETVI), 80%; in test [4] (setting [11]) it was 90%; in [5] (setting [12]), 80%; in test [6] (320 g/ha), 80%; in test [7] (320 g/ha), 80%.
For the compound `CCOC(=O)C(Oc1nn(-c2ncccc2F)c(-c2ccc(F)nc2)c1I)SC` (stereo not shown) [Example I-18], the pest or weed control at 320 g/ha in [2] (setting [8]) was determined as 100%; in test [3] (320 g/ha), 90%; in the test with Setaria viridis (SETVI), 90%; in [4] (setting [11]), 90%; in [5] (setting [12]), 90%; in the test with Viola tricolor (VIOTR) (setting [10]), 90%. The pest or weed control at 320 g/ha in test [6] (320 g/ha) turned out to be 90%; in test [7] (320 g/ha) it was 80%. Moreover, the pest or weed control at 80 g/ha amounted to 80% in test [3]; 90% in test [4] (Fallopia convolvulus, 504 h, 80 g/ha, read-out: Post-emergence effect at 80 g/ha against POLCO in %); 90% in the test on Viola tricolor (VIOTR) (setting [9]); 80% in test [6].
As to `CCOC(=O)C(Oc1nn(-c2ncccc2F)c(-c2ccc(F)nc2)c1C1CC1)SC` (stereo not shown) [Example I-20], the pest or weed control at 320 g/ha in test [2] (setting [8]) worked out at 90%; in test [5] (setting [12]), 90%; in the test with Viola tricolor (VIOTR) (setting [10]), 90%; in [6] (320 g/ha), 80%. The pest or weed control at 80 g/ha is 80% in test [5] (Abutilon theophrasti, 504 h, 80 g/ha, read-out: Post-emergence effect at 80 g/ha against ABUTH in %); 80% in the test with Viola tricolor (VIOTR) (setting [9]); 80% in test [6].
As for `CSC(Oc1nn(-c2ccccc2F)c(-c2ccc(F)nc2)c1I)C(=O)O` (stereo not shown) [Example I-21], the pest or weed control at 320 g/ha in test [2] (setting [8]) worked out at 90%; in the test with Setaria viridis (SETVI), 90%; in test [4] (setting [11]) it was 80%; in test [5] (setting [12]) it was 80%; with Viola tricolor (VIOTR) (setting [10]) it was 90%; in test [6] (320 g/ha) it was 90%. Besides, the pest or weed control at 80 g/ha in the test on Viola tricolor (VIOTR) (setting [9]) was determined as 80%.
Regarding `CSC(Oc1nn(-c2ncccc2F)c(-c2ccc(F)nc2)c1C1CC1)C(=O)O` (stereo not shown) [Example I-33], the pest or weed control at 320 g/ha (in [2] (setting [8]); with Avena fatua (AVEFA); in the test with Viola tricolor (VIOTR) (setting [10])) was 80% throughout.
For the compound `CSC(Oc1nn(-c2ncccc2F)c(-c2ccc(F)nc2)c1Br)C(=O)O` (stereo not shown) [Example I-34], the pest or weed control at 320 g/ha in the test with Bassia scoparia (KCHSC) was found to be 80%; in test [1] (320 g/ha) it was 80%; in [2] (setting [8]) it was 90%; in test [3] (320 g/ha), 90%; in the test on Setaria viridis (SETVI) it was 90%; in test [4] (setting [11]), 90%. Also, the pest or weed control at 320 g/ha came to 90% in [5] (setting [12]), 90% in the test with Viola tricolor (VIOTR) (setting [10]), 80% in test [6] (320 g/ha) and 90% in test [7] (320 g/ha). Moreover, the pest or weed control at 80 g/ha came to 80% in [2] (Echinochloa crus-galli, 504 h, 80 g/ha, read-out: Post-emergence effect at 80 g/ha against ECHCG in %) and 80% in [3]. Besides, the “Post-emergence effect at 80 g/ha against DIGSA in %” value in [7] (80 g/ha) is given as 80%.
For `CSC(Oc1nn(-c2ncccc2F)c(-c2ccc(F)nc2)c1C(F)(F)F)C(=O)O` (stereo not shown) [Example I-38], the pest or weed control at 320 g/ha in test [1] (320 g/ha) was 80%; in test [4] (setting [11]) it was 90%; in test [5] (setting [12]) it was 80%; in the test with Viola tricolor (VIOTR) (setting [10]), 90%.
In the case of `CCOC(=O)C(Oc1nn(-c2ccccc2F)c(-c2ccc(F)nc2)c1I)SC` (stereo not shown) [Example I-68], the pest or weed control at 320 g/ha in test [2] (setting [8]) turned out to be 90%; in the test with Setaria viridis (SETVI), 90%; in [4] (setting [11]), 80%; in the test with Viola tricolor (VIOTR) (setting [10]) it was 90%; in test [6] (320 g/ha) it was 90%; in [7] (320 g/ha), 80%.
